Assay results as given in patent US7902373B2 (Pfizer Inc, priority 2006, dated 2011).

biological target: human recombinant H-PGDS (Homo sapiens, UniProt O60760); experiment: Fluorescence intensity h-PGDS TBA enzyme assay; format: biochemical; settings: Examples up to 622 (and 3a, 3b)
Sequence (O60760 whole entry): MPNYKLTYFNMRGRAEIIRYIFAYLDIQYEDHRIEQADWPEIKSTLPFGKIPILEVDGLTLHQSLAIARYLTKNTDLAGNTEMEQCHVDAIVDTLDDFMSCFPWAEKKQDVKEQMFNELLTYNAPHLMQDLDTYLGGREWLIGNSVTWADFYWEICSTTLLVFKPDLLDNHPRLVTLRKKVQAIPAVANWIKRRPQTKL

IC50 [nM] | Compound
2.42 | CC(C)c1cc(CN2CCC(NC(=O)c3ccc(-c4cccc(F)c4)nc3)CC2)n[nH]1 [Example 366]
0.707 | O=C(NC1CCN(Cc2cccc(-n3cccn3)c2)CC1)c1ccc(-c2cccc(F)c2)nc1 [Example 367, 6-(3-Fluorophenyl)-N-{1-[3-(1H-pyrazol-1-yl)benzyl]piperidin-4-yl}nicotinamide]
2.03 | Nc1ncc(CN2CCC(NC(=O)c3ccc(-c4cccc(F)c4)nc3)CC2)cn1 [Example 368, N-{1-[(2-Aminopyrimidin-5-yl)methyl]piperidin-4-yl}-6-(3-fluorophenyl)nicotinamide]
1.36 | Cc1cc(C)n(-c2cccc(CN3CCC(NC(=O)c4ccc(-c5cccc(F)c5)nc4)CC3)c2)n1 [Example 369, N-{1-[3-(3,5-Dimethyl-1H-pyrazol-1-yl)benzyl]piperidin-4-yl}-6-(3-fluorophenyl)nicotinamide]
0.456 | O=C(NC1CCN(Cc2cc(F)cc3c2OCOC3)CC1)c1ccc(-c2cccc(F)c2)nc1 [Example 370, N-{1-[(6-Fluoro-4H-1,3-benzodioxin-8-yl)methyl]piperidin-4-yl}-6-(3-fluorophenyl)nicotinamide]
0.438 | O=C(NC1CCN(Cc2cccc3nsnc23)CC1)c1ccc(-c2cccc(F)c2)nc1 [Example 371, N-[1-(2,1,3-Benzothiadiazol-4-ylmethyl)piperidin-4-yl]-6-(3-fluorophenyl)nicotinamide]
0.981 | Cc1cc(CN2CCC(NC(=O)c3ccc(-c4cccc(F)c4)nc3)CC2)n(C)n1 [Example 372, N-{1-[(1,3-Dimethyl-1H-pyrazol-5-yl)methyl]piperidin-4-yl}-6-(3-fluorophenyl)nicotinamide]
2.36 | O=C(NC1CCN(Cc2csc(-c3ccccc3)n2)CC1)c1ccc(-c2cccc(F)c2)nc1 [Example 373, 6-(3-Fluorophenyl)-N-{1-[(2-phenyl-1,3-thiazol-4-yl)methyl]piperidin-4-yl}nicotinamide]
2.99 | Cn1cnc(CN2CCC(NC(=O)c3ccc(-c4cccc(F)c4)nc3)CC2)c1 [Example 374, 6-(3-Fluorophenyl)-N-{1-[(1-methyl-1H-imidazol-4-yl)methyl]piperidin-4-yl}nicotinamide]
0.667 | O=C(NC1CCN(Cc2cccc(-n3cccn3)n2)CC1)c1ccc(-c2cccc(F)c2)nc1 [Example 375, 6-(3-Fluorophenyl)-N-(1-{[6-(1H-pyrazol-1-yl)pyridin-2-yl]methyl}piperidin-4-yl)nicotinamide]
0.876 | Cn1ccnc1-c1ccc(CN2CCC(NC(=O)c3ccc(-c4cccc(F)c4)nc3)CC2)cc1 [Example 376, 6-(3-Fluorophenyl)-N-{1-[4-(1-methyl-1H-imidazol-2-yl)benzyl]piperidin-4-yl}nicotinamide]
0.491 | O=C(NC1CCN(Cc2cccn3c(Br)cnc23)CC1)c1ccc(-c2cccc(F)c2)nc1 [Example 377, N-{1-[(3-Bromoimidazo[1,2-a]pyridin-8-yl)methyl]piperidin-4-yl}-6-(3-fluorophenyl)nicotinamide]
1.41 | O=C(NC1CCN(Cc2ccc(=O)[nH]c2)CC1)c1ccc(-c2cccc(F)c2)nc1 [Example 378, 6-(3-Fluorophenyl)-N-{1-[(6-oxo-16-dihydropyridin-3-yl)methyl]piperidin-4-yl}nicotinamide]
1.43 | CCOC(=O)c1cn2c(CN3CCC(NC(=O)c4ccc(-c5cccc(F)c5)nc4)CC3)cccc2n1 [Example 379, Ethyl 5-{[4-({[6-(3-fluorophenyl)pyridin-3-yl]carbonyl}amino)piperidin-1-yl]methyl}imidazo[1,2-a]pyridine-2-carboxylate]
1.25 | Cc1ccc(-c2cccc(CN3CCC(NC(=O)c4ccc(-c5cccc(F)c5)nc4)CC3)c2)c(N)n1 [Example 380, N-{1-[3-(2-Amino-6-methylpyridin-3-yl)benzyl]piperidin-4-yl}-6-(3-fluorophenyl)nicotinamide]
0.0854 | O=C(NC1CCN(Cc2cccc(-c3cncnc3)c2)CC1)c1ccc(-c2cccc(F)c2)nc1 [Example 381, 6-(3-Fluorophenyl)-N-[1-(3-pyrimidin-5-ylbenzyl)piperidin-4-yl]nicotinamide]
0.681 | O=C(NC1CCN(Cc2cn[nH]c2-c2ccccc2Cl)CC1)c1ccc(-c2cccc(F)c2)nc1 [Example 382, N-(1-{[5-(2-Chlorophenyl)-1H-pyrazol-4-yl]methyl}piperidin-4-yl)-6-(3-fluorophenyl)nicotinamide]
1.25 | Cc1ccn2c(CN3CCC(NC(=O)c4ccc(-c5cccc(F)c5)nc4)CC3)c(C)nc2c1 [Example 383, N-{1-[(2,7-Dimethylimidazo[1,2,a]pyridin-3-yl)methyl]piperidin-4-yl}-6-(3-fluorophenyl)nicotinamide]
0.959 | O=C(NC1CCN(Cc2ccn[nH]2)CC1)c1ccc(-c2cccc(F)c2)nc1 [Example 384, 6-(3-Fluorophenyl)-N-[1-(1H-pyrazol-5-ylmethyl)piperidin-4-yl]nicotinamide]

IC50 [nM] | Compound
11.7 | N#CC1(c2ccc(CN3CCC(NC(=O)c4ccc(-c5cccc(F)c5)nc4)CC3)cc2)CC=CC1 [Example 385, N-{1-[4-(1-Cyanocyclopent-3-en-1-yl)benzyl]piperidin-4-yl}-6-(3-fluorophenyl)nicotinamide]
1.2 | O=C(NC1CCN(Cc2cnn3c2CCCC3)CC1)c1ccc(-c2cccc(F)c2)nc1 [Example 386, 6-(3-Fluorophenyl)-N-[1-(4,5,6,7-tetrahydropyrazolo[1,5-a]pyridin-3-ylmethyl)piperidin-4-yl]nicotinamide]
1.85 | O=C(NC1CCN(Cc2cnn3c2CCCCC3)CC1)c1ccc(-c2cccc(F)c2)nc1 [Example 387, 6-(3-Fluorophenyl)-N-[1-(5,6,7,8-tetrahydro-4H-pyrazolo[1,5-a]azepin-3-ylmethyl)piperidin-4-yl]nicotinamide]
0.951 | CCc1noc(COc2cccc(CN3CCC(NC(=O)c4ccc(-c5cccc(F)c5)nc4)CC3)c2)n1 [Example 388, N-(1-{3-[(3-Ethyl-1,2,4-oxadiazol-5-yl)methoxy]benzyl}piperidin-4-yl)-6-(3-fluorophenyl)nicotinamide]
2.23 | Cc1nccc(CN2CCC(NC(=O)c3ccc(-c4cccc(F)c4)nc3)CC2)n1 [Example 389, 6-(3-Fluorophenyl)-N-{1-[(2-methylpyrmidin-4-yl)methyl]piperidin-4-yl}nicotinamide]
11.6 | CN(c1nccc(CN2CCC(NC(=O)c3ccc(-c4cccc(F)c4)nc3)CC2)n1)C1CCCCC1 [Example 390, N-[1-({2-[Cyclohexyl(methyl)amino]pyrimidin-4-yl}methyl)piperidin-4-yl]-6-(3-fluorophenyl)nicotinamide]
1.2 | COCCCNc1nccc(CN2CCC(NC(=O)c3ccc(-c4cccc(F)c4)nc3)CC2)n1 [Example 391, 6-(3-Fluorophenyl)-N-[1-({2-[(3-methoxypropyl)amino]pyrimidin-4-yl}methyl)piperidin-4-yl]nicotinamide]
0.849 | CN(C)c1nccc(CN2CCC(NC(=O)c3ccc(-c4cccc(F)c4)nc3)CC2)n1 [Example 392, N-(1-{[2-(Dimethylamino)pyrimidin-4-yl]methyl}piperidin-4-yl)-6-(3-fluorophenyl)nicotinamide]
1.18 | O=C(NC1CCN(Cc2ccnc(NC3CC3)n2)CC1)c1ccc(-c2cccc(F)c2)nc1 [Example 393, N-(1-{[2-(Cyclopropylamino)pyrimidin-4-yl]methyl}piperidin-4-yl)-6-(3-fluorophenyl)nicotinamide]
0.379 | O=C(NC1CCN(Cc2ccn(CCc3ccccc3)n2)CC1)c1ccc(-c2cccc(F)c2)nc1 [Example 394, 6-(3-Fluorophenyl)-N-(1-{[1-(2-phenylethyl)-1H-pyrazol-3-yl]methyl}piperidin-4-yl)nicotinamide]
1.43 | O=C(NC1CCN(Cc2ccnn2CCc2ccccc2)CC1)c1ccc(-c2cccc(F)c2)nc1 [Example 395, 6-(3-Fluorophenyl)-N-(1-{[1-(2-phenylethyl)-1H-pyrazol-5-yl]methyl}piperidin-4-yl)nicotinamide]
1.45 | Cn1ccc(CN2CCC(NC(=O)c3ccc(-c4cccc(F)c4)nc3)CC2)n1 [Example 396, 6-(3-Fluorophenyl)-N-{1-[(1-methyl-1H-pyrazol-3-yl)methyl]piperidin-4-yl}nicotinamide]
1.47 | O=C(NC1CCN(Cc2ccnc(N3CCOCC3)n2)CC1)c1ccc(-c2cccc(F)c2)nc1 [Example 397, 6-(3-Fluorophenyl)-N-{1-[(2-morpholin-4-ylpyrimidin-4-yl)methyl]piperidin-4-yl}nicotinamide]
8.56 | CCN(C)c1ncc2c(n1)CCC(CN1CCC(NC(=O)c3ccc(-c4cccc(F)c4)nc3)CC1)C2 (stereo not shown) [Example 398, N-[1-({2-[Ethyl(methyl)amino]-5,6,7,8-tetrahydroquinazolin-6-yl}methyl)piperidin-4-yl]-6-(3-fluorophenyl)nicotinamide]
1.02 | O=C(NC1CCN(CC2CCc3nc(CC4CC4)ncc3C2)CC1)c1ccc(-c2cccc(F)c2)nc1 (stereo not shown) [Example 399, N-(1-{[2-(cyclopropylmethyl)-5,6,7,8-tetrahydroquinazolin-6-yl]methyl}piperidin-4-yl)-6-(3-fluorophenyl)nicotinamide]
1.04 | CC(C)c1ncc2c(n1)CCC(CN1CCC(NC(=O)c3ccc(-c4cccc(F)c4)nc3)CC1)C2 (stereo not shown) [Example 400, 6-(3-Fluorophenyl)-N-{1-[(2-isopropyl-5,6,7,8-tetrahydroquinazolin-6-yl)methyl]piperidin-4-yl}nicotinamide]
0.574 | Cc1ncc2c(n1)CCC(CN1CCC(NC(=O)c3ccc(-c4cccc(F)c4)nc3)CC1)C2 (stereo not shown) [Example 401, 6-(3-Fluorophenyl)-N-{1-[(2-methyl-5,6,7,8-tetrahydroquinazolin-6-yl)methyl]piperidin-4-yl}nicotinamide]
1.64 | CC(C)(C)c1ncc2c(n1)CCC(CN1CCC(NC(=O)c3ccc(-c4cccc(F)c4)nc3)CC1)C2 (stereo not shown) [Example 402, N-{1-[(2-tert-Butyl-5,6,7,8-tetrahydroquinazolin-6-yl)methyl]piperidin-4-yl}-6-(3-fluorophenyl)nicotinamide]
